These results are taken from US11110158B2, “Prostate-associated antigens and vaccine-based immunotherapy regimens” (Pfizer Inc., priority 2012, dated 2021).

The assay concerns human PSMA. Kind of assay: IFNγ ELISPOT, breaking of immune tolerance in human PSMA transgenic mice. Type of assay: in vivo, mouse. As to the method: Eight-to-10 week-old transgenic mice were immunized using PMED method with various PSMA DNA constructs in a prime/boost/boost regimen, two weeks apart between each vaccination. Alternatively, mice were primed with adenovirus vectors encoding the PSMA antigen at 1×10^9 viral particles in 50 μl (PBS) by intramuscular injection. The adenovirus vector (pShuttle-CMV vector from Stratagene) was modified to contain NheI and BgIII restriction sites within the multiple cloning site. The DNA encoding human PSMA modified was then restriction digested with NheI and BgIII, ligated into this vector and sequence confirmed. The pShuttle human PSMA modified vector was then recombined with the pAdEasy-1 vector and virus was propagated according to the AdEasy system (Stratagene). Twenty-days later, they were boosted with PMED as described above. In each of the regimens used, antigen specific T cell response was measured 7 days after the last immunization in an interferon-gamma (IFNγ) ELISPOT assay. The ELISPOT assay is similar to the sandwich enzyme-linked immunosorbent assay (ELISA). Briefly, a capture antibody specific to IFNγ BD Bioscience, #51-2525kc) is coated onto a polyvinylidene fluoride (PVDF) membrane in a microplate overnight at 4° C. The plate is blocked with serum/protein to prevent nonspecific binding to the antibody. […]

As to “PSMA modified: membrane-bound polypeptide of amino acids 15-750 of human PSMA, SEQ ID NO: 9; tested as DNA construct”, the “# of positive” value (Table 12, human PSMA transgenic mice with SFC>50 / mice tested) was 2/10. The “PSMA transgenic mice able to mount a T cell response to human PSMA” value (human PSMA transgenic mice, SFC>50 positive) came to 20%.
